What was measured:
[1] = Clearance in Sprague-Dawley rat at 1 mg/kg, iv; format: ADME, organism-based; parameters: dose 1 mg/kg, route intravenous; details: in vivo
[2] = AUC (0 to 24 hrs) in Sprague-Dawley rat at 3 mg/kg, po; format: ADME, organism-based; parameters: time < 24 hr, dose 3 mg/kg, route oral; details: plasma
[3] = Metabolic stability in rat hepatic microsomes at 1 umol/L pre-incubated fro 5 mins at 37 degC before addition of NADPH-generating system by UV detection based HPLC method; format: ADME; details: liver microsomes, read-out: CLH
[4] = biological target: T1, Mineralocorticoid receptor (Homo sapiens, UniProt P08235)
T1 sequence (P08235 whole entry): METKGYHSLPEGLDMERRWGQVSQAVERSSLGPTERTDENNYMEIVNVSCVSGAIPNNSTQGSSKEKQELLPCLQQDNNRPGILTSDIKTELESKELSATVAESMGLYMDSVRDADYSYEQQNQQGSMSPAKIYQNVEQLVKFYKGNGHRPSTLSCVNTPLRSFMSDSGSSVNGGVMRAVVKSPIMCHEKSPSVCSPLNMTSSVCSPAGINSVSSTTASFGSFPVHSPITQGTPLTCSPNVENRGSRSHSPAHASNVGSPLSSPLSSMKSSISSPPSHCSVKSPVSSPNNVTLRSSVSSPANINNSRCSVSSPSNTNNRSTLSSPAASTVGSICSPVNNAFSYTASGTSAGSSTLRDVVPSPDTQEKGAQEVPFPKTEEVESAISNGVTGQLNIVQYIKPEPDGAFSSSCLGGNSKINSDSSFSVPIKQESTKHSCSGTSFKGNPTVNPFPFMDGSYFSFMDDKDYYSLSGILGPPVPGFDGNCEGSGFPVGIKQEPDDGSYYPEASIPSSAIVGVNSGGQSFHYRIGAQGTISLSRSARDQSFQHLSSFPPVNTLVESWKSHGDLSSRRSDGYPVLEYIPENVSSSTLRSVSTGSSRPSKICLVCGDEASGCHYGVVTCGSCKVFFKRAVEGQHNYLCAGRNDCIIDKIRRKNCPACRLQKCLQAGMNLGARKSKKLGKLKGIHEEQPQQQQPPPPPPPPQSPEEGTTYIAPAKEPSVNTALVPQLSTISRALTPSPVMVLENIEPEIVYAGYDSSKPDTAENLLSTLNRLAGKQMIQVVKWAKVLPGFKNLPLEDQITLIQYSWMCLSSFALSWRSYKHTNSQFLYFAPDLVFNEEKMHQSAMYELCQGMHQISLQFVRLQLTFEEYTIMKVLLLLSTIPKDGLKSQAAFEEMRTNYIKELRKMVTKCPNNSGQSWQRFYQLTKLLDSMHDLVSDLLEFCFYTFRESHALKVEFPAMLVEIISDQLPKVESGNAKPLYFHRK
Description: Antagonist activity at human mineralocorticoid receptor expressed in COS1 cells after 1 day by luciferase reporter gene assay

[5] = biological target: T1, Mineralocorticoid receptor; assay: biochemical
Description: Displacement of [3H]aldosterone from human mineralocorticoid receptor expressed in 293 cells after 16 hrs by scintillation counting

[6] = Lipophilicity, log D of the compound at pH 7.4 by HPLC analysis; format: physicochemical; details: buffer
[7] = Oral bioavailability in Sprague-Dawley rat at 3 mg/kg; format: ADME, organism-based; details: in vivo
[8] = tested on: Rattus norvegicus; assay: Toxicity in DOCA-salt hypertensive Wistar rat model assessed as change in heart rate at 100 mg/kg, po qd for 18 days measured 24 hrs post 7th and 14th last dose by tail-cuff method; format: organism-based; parameters: dose 100 mg/kg, route oral; details: in vivo
[9] = biological target: Glucocorticoid receptor (Homo sapiens, UniProt P04150); assay: biochemical
Description: Displacement of [3H]-Dexamethasone from glucocorticoid receptor (unknown origin) expressed in 293 cells after 16 hrs by scintillation counting

[10] = biological target: T2, Androgen receptor (Homo sapiens, UniProt P10275); assay: biochemical
T2 sequence (P10275 whole entry): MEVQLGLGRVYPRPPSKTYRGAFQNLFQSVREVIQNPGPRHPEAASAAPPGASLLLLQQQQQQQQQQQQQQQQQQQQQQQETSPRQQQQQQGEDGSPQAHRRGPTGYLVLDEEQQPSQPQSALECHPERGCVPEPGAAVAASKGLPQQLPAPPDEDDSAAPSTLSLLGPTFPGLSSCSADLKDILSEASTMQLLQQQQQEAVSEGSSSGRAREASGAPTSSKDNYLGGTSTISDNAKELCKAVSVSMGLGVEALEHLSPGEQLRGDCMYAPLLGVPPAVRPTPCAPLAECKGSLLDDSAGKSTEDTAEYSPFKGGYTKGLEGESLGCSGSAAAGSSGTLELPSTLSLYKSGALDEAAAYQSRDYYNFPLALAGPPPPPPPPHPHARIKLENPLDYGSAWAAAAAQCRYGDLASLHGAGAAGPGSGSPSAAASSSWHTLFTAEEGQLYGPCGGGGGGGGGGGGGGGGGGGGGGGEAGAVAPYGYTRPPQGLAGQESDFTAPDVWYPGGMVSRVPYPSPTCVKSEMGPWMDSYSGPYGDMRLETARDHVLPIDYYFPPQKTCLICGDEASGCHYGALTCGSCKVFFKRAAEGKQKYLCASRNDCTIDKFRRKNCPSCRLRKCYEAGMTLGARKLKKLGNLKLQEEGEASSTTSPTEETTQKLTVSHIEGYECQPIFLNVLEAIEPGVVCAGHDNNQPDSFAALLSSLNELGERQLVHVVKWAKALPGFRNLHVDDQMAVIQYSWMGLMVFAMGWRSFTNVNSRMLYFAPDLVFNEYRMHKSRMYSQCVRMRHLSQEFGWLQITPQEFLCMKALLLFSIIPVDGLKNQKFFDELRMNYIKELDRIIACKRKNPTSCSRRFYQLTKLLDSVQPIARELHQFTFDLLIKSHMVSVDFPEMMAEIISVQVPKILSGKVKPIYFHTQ
Description: Displacement of [3H]testosterone from androgen receptor (unknown origin) expressed in 293 cells after 16 hrs by scintillation counting

[11] = Volume of distribution at steady state in Sprague-Dawley rat at 1 mg/kg, iv; format: ADME, organism-based; parameters: dose 1 mg/kg, route intravenous; details: in vivo, read-out: Vdss
[12] = Mean residence time in Sprague-Dawley rat at 3 mg/kg, po; format: ADME, organism-based; parameters: dose 3 mg/kg, route oral; details: in vivo
[13] = tested on: Rattus norvegicus; assay: Toxicity in DOCA-salt hypertensive Wistar rat model assessed as change in seminal vesicle weight at 100 mg/kg, po qd for 18 days measured 24 hrs post 7th and 14th last dose […]; format: organism-based; parameters: dose 100 mg/kg, route oral; details: in vivo
[14] = biological target: T3, Progesterone receptor (Homo sapiens, UniProt P06401); assay: Displacement of [[3H]-Progesterone from progesterone receptor (unknown origin) expressed in 293 cells after 16 hrs by scintillation counting; format: cell-based
T3 sequence (P06401 whole entry): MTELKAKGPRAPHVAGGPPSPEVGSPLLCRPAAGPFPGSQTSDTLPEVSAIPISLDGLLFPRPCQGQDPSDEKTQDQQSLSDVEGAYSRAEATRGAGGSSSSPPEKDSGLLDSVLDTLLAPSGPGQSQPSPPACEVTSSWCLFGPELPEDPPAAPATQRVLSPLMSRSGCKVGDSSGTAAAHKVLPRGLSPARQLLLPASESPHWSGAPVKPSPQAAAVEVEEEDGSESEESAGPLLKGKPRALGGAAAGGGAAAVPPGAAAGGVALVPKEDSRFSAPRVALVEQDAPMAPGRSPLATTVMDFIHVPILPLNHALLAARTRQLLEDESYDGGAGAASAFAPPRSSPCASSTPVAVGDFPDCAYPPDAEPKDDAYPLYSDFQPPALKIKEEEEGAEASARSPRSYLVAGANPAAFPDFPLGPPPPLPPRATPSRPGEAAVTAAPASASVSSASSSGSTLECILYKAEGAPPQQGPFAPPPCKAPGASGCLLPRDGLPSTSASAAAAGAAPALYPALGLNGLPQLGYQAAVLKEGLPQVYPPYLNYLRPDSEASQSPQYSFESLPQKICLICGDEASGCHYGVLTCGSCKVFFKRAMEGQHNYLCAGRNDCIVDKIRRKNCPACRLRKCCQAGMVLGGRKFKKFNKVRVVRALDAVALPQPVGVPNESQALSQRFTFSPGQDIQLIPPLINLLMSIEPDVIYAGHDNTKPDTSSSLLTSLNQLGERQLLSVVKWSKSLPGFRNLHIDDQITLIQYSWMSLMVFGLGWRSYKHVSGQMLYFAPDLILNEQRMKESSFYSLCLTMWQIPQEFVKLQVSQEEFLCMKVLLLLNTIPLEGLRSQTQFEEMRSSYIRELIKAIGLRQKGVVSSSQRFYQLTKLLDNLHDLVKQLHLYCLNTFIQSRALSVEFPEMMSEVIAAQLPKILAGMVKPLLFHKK

Chain of Glucocorticoid receptor (P04150 whole entry, looked up): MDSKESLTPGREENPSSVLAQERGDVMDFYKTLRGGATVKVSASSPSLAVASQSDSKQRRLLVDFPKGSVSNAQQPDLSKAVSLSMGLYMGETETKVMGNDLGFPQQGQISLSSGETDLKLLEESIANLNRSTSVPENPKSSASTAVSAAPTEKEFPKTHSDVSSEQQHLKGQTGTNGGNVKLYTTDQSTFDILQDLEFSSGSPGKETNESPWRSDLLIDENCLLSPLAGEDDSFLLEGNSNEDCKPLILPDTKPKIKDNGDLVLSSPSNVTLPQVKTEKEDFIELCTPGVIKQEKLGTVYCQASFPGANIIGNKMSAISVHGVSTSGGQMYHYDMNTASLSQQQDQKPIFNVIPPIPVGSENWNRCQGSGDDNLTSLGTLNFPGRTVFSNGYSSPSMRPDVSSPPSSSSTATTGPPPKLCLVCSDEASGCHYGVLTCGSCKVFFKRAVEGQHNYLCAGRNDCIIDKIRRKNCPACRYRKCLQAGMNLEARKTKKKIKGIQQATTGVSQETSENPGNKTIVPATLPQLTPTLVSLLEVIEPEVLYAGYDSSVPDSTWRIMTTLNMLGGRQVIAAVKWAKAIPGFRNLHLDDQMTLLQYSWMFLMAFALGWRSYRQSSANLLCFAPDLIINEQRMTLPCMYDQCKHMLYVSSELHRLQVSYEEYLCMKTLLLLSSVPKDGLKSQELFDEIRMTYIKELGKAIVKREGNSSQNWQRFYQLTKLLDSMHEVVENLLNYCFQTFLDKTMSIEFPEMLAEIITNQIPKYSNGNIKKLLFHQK

`Cc1nn(CC(F)(F)CO)c(-c2ccc(F)cc2)c1-c1ccc2c(c1)NC(=O)CO2` gave a clearance [1] of 16.5 mL/min/kg, an AUC(0-t) at 24 h [2] of 662 ng·h/mL and a microsomal CLint at 1 µM [3] greater than 42 µL/min/mg. It also gave an IC50 [4] of 71 nM, an IC50 [5] of 51 nM and a logD [6] of 2.05. The bioavailability [7] was 21.4%, the Activity [8] was “Non-toxic” and the IC50 [9] was 2400 nM. It also gave an IC50 [10] greater than 10000 nM, a Vd [11] of 1.36 L/kg and an MRT [12] of 3.77 h. The Activity [13] was “Non-toxic” and the IC50 [14] was greater than 10000 nM.

From ChEMBL document CHEMBL3351638, “Discovery of 6-[5-(4-fluorophenyl)-3-methyl-pyrazol-4-yl]-benzoxazin-3-one derivatives as novel selective nonsteroidal mineralocorticoid receptor antagonists” (Bioorg Med Chem, 2014)
